Test: loss of linezolid in IV solution during and following terminal moist heat sterilization in the container
Format: physicochemical
Settings: container-solution contact surface made of at least 50% polyolefin
Excerpt: It is well known to those skilled in the art that pharmaceutical agents administered IV must be sterile. While there are a number of methods to sterilize an IV solution, it is preferred to terminally moist heat or steam sterilize IV solutions of antibacterial oxazolidinones including those of linezolid. When the term terminally “moist heat sterilize” is used, it refers to and includes steam sterilization.
When terminally moist heat sterilizing an IV solution, the solution is placed in the container in which (1) it will be stored and then transferred to the container from which it will ultimately be administered, or (2) stored and then ultimately administered from the same container to deliver the IV solution to the patient. Therefore, it is imperative that the pharmaceutically active ingredient (oxazolidinone, linezolid) not react with the container in which it is to be terminally moist heat sterilized and stored/stored-administered.
What is essential is that the container-solution contact surface material be primarily a polyolefin; the remainder of the container can be made from polyolefin or other materials. It is preferred that the container-solution contact surface is made of from about 50 to about 100% polyolefin. It is more preferred that the container-solution contact surface is made of from about 70 to about 90% polyolefin. […]

CC(=O)NC[C@H]1CN(c2ccc(N3CCOCC3)c(F)c2)C(=O)O1 [linezolid, (S)-N-[[3-[3-fluoro-4-(4-morpholinyl)phenyl]-2-oxo-5-oxazolidinyl]methyl]acetamide]
loss of linezolid during and following terminal moist heat sterilization: significantly much less loss
